Source: PMC9227781, “Inhibitors of O-Acetylserine Sulfhydrylase with a Cyclopropane-Carboxylic Acid Scaffold Are Effective Colistin Adjuvants in Gram Negative Bacteria” (Pharmaceuticals, 2022)

Experiments:
[1] = tested on: S. Typhimurium ATCC14028; test: Checkerboard assay with colistin, S. Typhimurium; format: cell-based, Salmonella enterica serovar Typhimurium; conditions: for MIC: Salmonella enterica, colistin in combination with compound at 8 μg/mL; for fold reduction with respect to the MIC of colistin alone, S. Typhimurium: compound at 8 µg/mL
Procedure: (§1) Antimicrobial activity of associations between the different compounds and colistin (Sigma-Aldrich, St. Louis, MO, USA, lot n. 049M-4836 V) was tested with checkerboard assay with minor modifications, as mentioned in the previous work. For each assay, three experiments with three replicates each were assessed. For each compound tested concentration, 96-wells microtiter U-plates were prepared with twofold serial dilutions of colistin in MHB starting from the MIC value (µg/mL) for ten consecutive dilutions in 50 µL of broth. In each well of the same replicate, 1 µL of each compound in DMSO was added at a fixed concentration, 100 times higher than the final desired concentration (3.2; 1.6; 0.8 mg/mL). Subsequently, 49 µL of the bacterial suspension at a concentration of 10^6 CFU/mL, adjusted spectrophotometrically as reported above, was added to each well, reaching the final bacterial concentration of 5 × 10^5 CFU/mL. Growth and sterility controls were performed for each experiment and for each replicate. Finally, the plates were incubated at 37 °C in aerobic atmosphere for 24 h. After incubation, plates were read by unaided eye with a microtiter reading mirror and then the OD of each well of the plates was measured spectrophotometrically at 620 nm. MIC values were calculated as the arithmetic mean ± SD of the unaided eye reading and the inhibition of growth for each tested dilution was calculated from the OD values (mean ± SD).
(§2) To evaluate the antimicrobial effect of the two molecules in association, the FIC index was calculated as follows. The MICs of each of the two molecules tested individually and in combination with each other were evaluated and the results have been included in the following formula as reported by Meletiadis et al.: FIC=MICA in combination/MICA+MICB in combination/MICB where MICA was the MIC of the compound UPAR415 and MICA in combination was the MIC of UPAR415 in combination with colistin. MICB was the MIC of colistin and MICB in combination was the MIC of colistin in combination with UPAR415. From the results of the FIC index formula, the antimicrobial activity in combination of the two molecules can be considered: synergistic, additive, indifferent of antagonistic. If the FIC index is ≤ 0.5, the association is synergic; additive if FIC is between 0.5 and 1; indifferent if FIC is between 1 and 4; and antagonistic if FIC is ≥4 [50].
(§3) Statistical analysis of checkerboard results in comparison with MIC values of colistin alone was performed using the Analysis of Variance (ANOVA) test.

[2] = tested on: K. pneumoniae ATCC13883; test: Checkerboard assay with colistin, K. pneumoniae; format: cell-based, Klebsiella pneumoniae; conditions: for reduction of the MIC of colistin, K. pneumoniae: association of colistin with compound; for MIC Colistin K. pneumoniae: colistin in combination with compound at 8 μg/mL
Procedure: as §1, §2, §3

[3] = tested on: E. coli ATCC 25922; test: Checkerboard assay with colistin, E. coli; format: cell-based, Escherichia coli; conditions: for MIC Colistin E. coli: colistin in combination with compound at 8 μg/mL; for FIC Index E. coli / FIC Index interpretation E. coli: compound at 8 μg/mL with colistin; for fold reduction of MIC of colistin, E. coli: compound at 8 µg/mL, versus colistin alone
Procedure: as §1, §2, §3

[4] = tested on: E. coli ATCC 25922; test: MIC by broth microdilution, E. coli; format: cell-based, Escherichia coli; conditions: Escherichia coli, ATCC25922; compound alone, MHB, 24 h at 37 °C; read-out: MIC (μg/mL) E.coli ATCC 25922
How it was run: (§4)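 CLSI-based broth microdilution in MHB, inoculum 5 × 10^5 CFU/mL from log-phase cultures, compounds tested at 256–0.5 µg/mL final, 24 h at 37 °C static aerobic. MIC read by unaided eye with mirror plus OD620 for growth inhibition; mean ± SD of three experiments in triplicate.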

[5] = tested on: S. Typhimurium ATCC14028; test: MIC by broth microdilution, S. Typhimurium; format: cell-based, Salmonella enterica serovar Typhimurium; conditions: Salmonella enterica; compound alone, MHB, 24 h at 37 °C; read-out: MIC (μg/mL) S. Typhimurium ATCC14028
How it was run: as §4

[6] = tested on: K. pneumoniae ATCC13883; test: MIC by broth microdilution, K. pneumoniae; format: cell-based, Klebsiella pneumoniae; conditions: Klebsiella pneumoniae, ATCC13883; compound alone, MHB, 24 h at 37 °C; read-out: MIC (μg/mL) K. pneumoniae ATCC13883
[7] = compound at 8 μg/mL with colistin

CCOC(=O)C1(Cc2ccc(C)cc2)CC1c1cccc(N2CC(C)OC(C)C2)c1 (stereo not drawn) [Compound 12h, trans-ethyl 2-(3-(2,6-dimethylmorpholino)phenyl)-1-(4-methylbenzyl)cyclopropanecarboxylate]
MIC [1]: 0.101 ± 0.07 mg/L | MIC Colistin ([1]; colistin in combination with 12h at 32 μg/mL, S. Typhimurium ATCC14028 (wild type)): 0.125 ± 0.08 mg/L | fold reduction with respect to the MIC of colistin alone, S. Typhimurium [1]: 5 fold | FIC Index S. Typhimurium [1, 7]: 0.21 | FIC Index interpretation S. Typhimurium [1, 7]: synergy (If the FIC index is ≤ 0.5, the association is synergic) | reduction of the MIC of colistin, K. pneumoniae [2]: has not led to a reduction of the MIC of colistin | MIC Colistin K. pneumoniae [2]: 8.00 ± 0.0 mg/L | FIC Index K. pneumoniae [2, 7]: 2.01 | FIC Index interpretation K. pneumoniae [2, 7]: indifference (indifferent if FIC is between 1 and 4) | MIC Colistin E. coli [3]: 0.122 ± 0.08 mg/L | FIC Index E. coli [3]: 0.33 | FIC Index interpretation E. coli [3]: synergy (If the FIC index is ≤ 0.5, the association is synergic) | fold reduction of MIC of colistin, E. coli [3]: 2 fold | MIC [4]: > 512 µg/mL | MIC [5]: > 512 µg/mL | MIC [6]: > 512 µg/mL

Cc1ccc(CC2(C(=O)O)CC2c2cccc(N3CC(C)OC(C)C3)c2)cc1 (stereo not drawn) [Compound 13h, trans-2-(3-(2,6-dimethylmorpholino)phenyl)-1-(4-methylbenzyl)cyclopropanecarboxylic acid]
MIC [1]: 0.468 ± 0.01 mg/L | fold reduction with respect to the MIC of colistin alone, S. Typhimurium [1]: 2 fold | FIC Index S. Typhimurium [1, 7]: 0.90 | reduction of the MIC of colistin, K. pneumoniae [2]: has not led to a reduction of the MIC of colistin | MIC Colistin K. pneumoniae [2]: 3.33 ± 1.0 mg/L | FIC Index K. pneumoniae [2, 7]: 0.85 | effect on MIC of colistin, K. pneumoniae ([2]; compound at 32 and 16 µg/mL): only a slight effect | MIC Colistin E. coli [3]: 0.18 ± 0.06 mg/L | FIC Index E. coli [3]: 0.48 | FIC Index interpretation E. coli [3]: synergy (If the FIC index is ≤ 0.5, the association is synergic) | fold reduction of MIC of colistin, E. coli [3]: 3 fold | MIC [4]: > 512 µg/mL | MIC [5]: > 512 µg/mL | MIC [6]: > 512 µg/mL
